Measurements: US20230293629A1, “METHODS FOR ATTENUATING RELEASE OF INFLAMMATORY MEDIATORS AND PEPTIDES USEFUL THEREIN” (BIOMARCK PHARMACEUTICALS LTD., priority 2006, published 2023)
Where a SMILES comes first, the peptide text is derived from it. Where no end group is shown, it is not given here. The star is where a group is joined. Myristoyl = CCCCCCCCCCCCCC(=O)*

Tests used:
U937 cells = test: PMA-stimulated lysozyme secretion by U937 cells; format: cell-based, human; details: for % Inhibition Lysozyme: 50 μM test peptide, two hour incubation with 100 nM PMA, U937 cells
Summary of the method: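 U937 cells at 2.5×10^6 cells/ml in phenol red-free RPMI-1640 were preincubated 10 min at 37 °C with 50 μM test peptide, then stimulated 2 h with 100 nM PMA. Secreted lysozyme was measured by decrease in A450 of Micrococcus lysodeikticus suspension (pH 7.0) against an egg white lysozyme standard, expressed as percentage of PMA control.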

HL-60 clone 15 cells = test: PMA-stimulated EPO release from HL-60 clone 15 cells; format: cell-based, human; details: for % Inhibition EPO: 50 μM test peptide, two hour incubation with 100 nM PMA, HL-60 clone 15 cells
Summary of the method: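 HL-60 clone 15 cells were differentiated to an eosinophil-like state with 0.5 mM butyric acid for 5 days. At 2.5×10^6 cells/ml in phenol red-free RPMI, they were preincubated 10 min at 37 °C with peptide, then stimulated with PMA for up to 2 h. Released EPO was measured by TMB oxidation (A450) and given as percentage of total content in triton X-100 lysates.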

[1] = any of the time points or concentrations tested

Compound: CCCCCCCCCCCCCC(=O)NCC(=O)N[C@@H](C)C(=O)N[C@@H](CCC(N)=O)C(=O)N[C@@H](Cc1ccccc1)C(=O)N[C@@H](CO)C(=O)N[C@@H](CCCCN)C(=O)N[C@H](C(=O)N[C@@H](C)C(=O)N[C@@H](C)C(=O)N[C@@H](CCCCN)C(=O)NCC(=O)N[C@@H](CCC(=O)O)C(=O)N[C@@H](C)C(=O)N[C@@H](C)C(=O)N[C@@H](C)C(=O)N[C@@H](CCC(=O)O)C(=O)N[C@@H](CCCNC(=N)N)C(=O)N1CCC[C@H]1C(=O)NCC(=O)N[C@@H](CCC(=O)O)C(=O)N[C@@H](C)C(=O)N[C@@H](C)C(=O)N[C@H](C(=O)N[C@@H](C)C(=O)O)C(C)C)[C@@H](C)O [MANS] (Myristoyl-GAQFSKTAAKGEAAAERPGEAAVA-OH; C-terminus assumed)
- reduction in lysozyme secretion relative to the PMA control reference (U937 cells; 10 μM, 1 hour): about 20%
- lysozyme secretion relative to control as 100% (U937 cells; 10 μM, 1 hour, PMA control reference about 210%): about 170%
- reduction in lysozyme secretion relative to the PMA control reference (U937 cells; 10 μM, 2 hour): about 20%
- lysozyme secretion relative to control as 100% (U937 cells; 10 μM, 2 hour, PMA control reference about 240%): about 195%
- % Inhibition Lysozyme (U937 cells): 40.8%
- reduction in lysozyme secretion relative to the PMA control reference (U937 cells; 50 μM, 1 hour): about 20%
- lysozyme secretion relative to control as 100% (U937 cells; 50 μM, 1 hour, PMA control reference about 210%): about 170%
- reduction in lysozyme secretion relative to the PMA control reference (U937 cells; 50 μM, 2 hour): about 25%
- lysozyme secretion relative to control as 100% (U937 cells; 50 μM, 2 hour, PMA control reference about 240%): about 185%
- reduction in lysozyme secretion relative to the PMA control reference (U937 cells; 100 μM, 1 hour): about 45%
- lysozyme secretion relative to control as 100% (U937 cells; 100 μM, 1 hour, PMA control reference about 210%): about 115%
- reduction in lysozyme secretion relative to the PMA control reference (U937 cells; 100 μM, 2 hour): about 40%
- lysozyme secretion relative to control as 100% (U937 cells; 100 μM, 2 hour, PMA control reference about 240%): about 140%
- reduction in EPO activity relative to the PMA control reference (HL-60 clone 15 cells; 10 μM, 1 hour): about 15%
- EPO activity relative to control as 100% (HL-60 clone 15 cells; 10 μM, 1 hour, PMA control reference about 110%): about 95%
- reduction in EPO activity relative to the PMA control reference (HL-60 clone 15 cells; 10 μM, 2 hour): about 10%
- EPO activity relative to control as 100% (HL-60 clone 15 cells; 10 μM, 2 hour, PMA control reference about 145%): about 130%
- % Inhibition EPO (HL-60 clone 15 cells): 46.1%
- reduction in EPO activity relative to the PMA control reference (HL-60 clone 15 cells; 50 μM, 1 hour): about 30%
- EPO activity relative to control as 100% (HL-60 clone 15 cells; 50 μM, 1 hour, PMA control reference about 110%): about 78%
- reduction in EPO activity relative to the PMA control reference (HL-60 clone 15 cells; 50 μM, 2 hour): about 50%
- EPO activity relative to control as 100% (HL-60 clone 15 cells; 50 μM, 2 hour, PMA control reference about 145%): about 70%
- reduction in EPO activity relative to the PMA control reference (HL-60 clone 15 cells; 100 μM, 1 hour): about 40%
- EPO activity relative to control as 100% (HL-60 clone 15 cells; 100 μM, 1 hour, PMA control reference about 110%): about 65%
- reduction in EPO activity relative to the PMA control reference (HL-60 clone 15 cells; 100 μM, 2 hour): about 50%
- EPO activity relative to control as 100% (HL-60 clone 15 cells; 100 μM, 2 hour, PMA control reference about 145%): about 72%

Compound: CCCCCCCCCCCCCC(=O)NCC(=O)N[C@H](C(=O)N[C@@H](C)C(=O)N1CCC[C@H]1C(=O)N[C@@H](C)C(=O)N[C@@H](C)C(=O)N[C@@H](CCC(=O)O)C(=O)NCC(=O)N[C@@H](C)C(=O)NCC(=O)N[C@@H](C)C(=O)N[C@@H](CCC(=O)O)C(=O)N[C@H](C(=O)N[C@@H](CCCCN)C(=O)N[C@@H](CCCNC(=N)N)C(=O)N[C@@H](C)C(=O)N[C@@H](CO)C(=O)N[C@@H](C)C(=O)N[C@@H](CCC(=O)O)C(=O)N[C@@H](C)C(=O)N[C@@H](CCCCN)C(=O)N[C@@H](CCC(N)=O)C(=O)N[C@@H](C)C(=O)N[C@@H](Cc1ccccc1)C(=O)O)C(C)C)[C@@H](C)O [RNS, reference compound] (Myristoyl-GTAPAAEGAGAEVKRASAEAKQAF-OH; C-terminus assumed)
- % Inhibition Lysozyme (U937 cells): 0%
- effect on PMA-enhanced lysozyme secretion (U937 cells; [1]): did not affect
- % Inhibition EPO (HL-60 clone 15 cells): 0%
- effect on PMA-enhanced EPO release (HL-60 clone 15 cells; [1]): did not affect

Compound: Ac-GAQFSKTAAK [Ac-GAQFSKTAAK]
- % Inhibition Lysozyme (U937 cells): 41.2%
- % Inhibition EPO (HL-60 clone 15 cells): 35.7%

Compound: Ac-GAQFSKTAAKGEAAAERPGEAAVA
- % Inhibition Lysozyme (U937 cells): 39.8%
- % Inhibition EPO (HL-60 clone 15 cells): 33.7%
